Assay results taken from patent US20070232492A1, “Herbicidal Composition” (Ishihara Sangyo Kaisha, LTD., priority 2004, published 2007).

Key:
Type in all cases: in vivo
[1] = system: flatsedge (Cyperus serotinus); assay: Growth inhibition of flatsedge (planted tubers) in paddy soil pots, application under submerged condition, visual rating and Colby expected value
Outline: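 Tubers grown in flooded paddy soil (3.5 cm water); compounds, alone or mixed, diluted in water and applied submerged at about 2.5-4 leaf stage. Growth inhibition rated visually 21-30 days later (0% untreated to 100% kill); expected mixture values by Colby equation.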

[2] = Growth inhibition of mixed broadleaf paddy weeds in paddy soil pots, application under submerged condition, visual rating and Colby expected value; conditions: mixed broadleaf paddy weeds, soil, 528 h, read-out: Growth inhibition rate (%) Observed
Source text: (§1) When the herbicidal activity in a case where two active ingredients are combined, is larger than the simple sum of the respective herbicidal activities of the two active ingredients (the expected activity), it is called a synergistic effect. The activity expected by the combination of two active ingredients can be calculated as follows (Colby S. R., “Weed”, vol. 15, p. 20-22, 1967). E=p+q−(p×q÷100) where p: growth inhibition rate when treated with x (g/a) of herbicide X,
(§2) q: growth inhibition rate when treated with y (g/a) of herbicide Y,
(§3) E: growth inhibition rate expected when treated with x (g/a) of herbicide X and y (g/a) of herbicide Y.
(§4) Namely, when the actual growth inhibition rate (observed value) is larger than the growth inhibition rate by the above calculation (expected value), the activity by the combination can be regarded as showing a synergistic effect.
(§5) Growth inhibition rate (%)=0% (equivalent to the non-treated area) to 100% (complete kill)
(§6) Paddy field soil was put into a 1/1,700 are pot, and mixed seeds of false pimpernel (Lindernia pyxidaria), abunome (Dopatrium junceum), long stem waterwort (Elatine triandra SCHK.) and toothcup (Rotala india) were sown and left to stand under an irrigated condition with a water depth of 3.5 cm. When false pimpernel reached one leaf-pair stage, wettable powders of compound A2 and compound (B1.2) were, respectively, diluted with water and applied under submerged condition so that the active ingredients became the prescribed amounts, respectively. The state of growth was visually observed 21 days after application, and evaluation and calculation were carried out in the same manner as in the above Test Example 1.
(§7) Paddy field soil was put into a 1/1,700 are pot, and mixed seeds of false pimpernel (Lindernia pyxidaria), abunome (Dopatrium junceum), long stem waterwort (Elatine triandra SCHK.) and toothcup (Rotala india) were sown and left to stand under an irrigated condition with a water depth of 3.5 cm. When false pimpernel reached two leaf-pair stage, a wettable powder of compound A2 and an emulsifiable concentrate of compound (B8.1) were, respectively, diluted with water and applied under submerged condition so that the active ingredients became the prescribed amounts, respectively. The state of growth was visually observed 22 days after application, and evaluation and calculation were carried out in the same manner as in the above Test Example 1.

[3] = system: barnyardgrass (Echinochloa oryzicola vasing); assay: Growth inhibition of barnyardgrass in paddy soil pots, foliar application with a small sprayer, visual rating and Colby expected value; conditions: 3.0 to 3.3 leaf stage, 21 days after application
Source text: as §1, §2, §3, §4, §5
Paddy field soil was put into a 1/10,000 are pot, and seeds of barnyardgrass (Echinochloa oryzicola vasing) were sown and left to stand under an irrigated condition with a water depth of 3.5 cm. When barnyardgrass reached 3.0 to 3.3 leaf stage, a wettable powder of compound A2 and a water-based suspension of compound (B11.1) were, respectively, diluted with water in an amount of 1,000 liter/ha, followed by foliar application with a small sprayer. The state of growth was visually observed 21 days after application, and evaluation and calculation were carried out in the same manner as in the above Test Example 1.

[4] = system: rice (Oryza sativa var. Nihonbare); assay: Growth inhibition (phytotoxicity) of transplanted rice by compound A2 with or without compound D, application under submerged condition, visual rating 7 and 21 days after application; conditions: Compound A2 60 g/ha, Compound D not applied, applied 5 days after implantation
Source text: as §5
Paddy field soil was put into a 1/500,000 hectare pot, harrowed and irrigated with a depth of 3 cm. On the next day, rice (Oryza sativa var. Nihonbare) at 2 leaf stage was implanted with a depth of 3 cm. A wettable powder of compound A2 and a wettable powder of compound D were, respectively, diluted with water and applied under submerged condition 5 days after implantation so that the active ingredients became the prescribed amounts, respectively. The state of growth of rice was visually observed 7 days and 21 days after application, and the growth inhibition rate (%) was evaluated in the same is manner as in the above Test Example 1.

[5] = system: false pimpernel (Lindernia pyxidaria), abunome (Dopatrium junceum), long stem waterwort (Elatine triandra SCHK.) and toothcup (Rotala india); assay: Growth inhibition of mixed broadleaf paddy weeds in paddy soil pots, application under submerged condition, visual rating and Colby expected value; conditions: 0.22 g/a
Source text: as §1, §2, §3, §4, §5, §6, §7

For `CCCOCCN(C(=O)CCl)c1c(CC)cccc1CC` [Compound (B3.1), pretilachlor], the inhibition at 400 g/ha ([1]; Cyperus serotinus, soil, 720 h, 4 g/a, 2.5 to 3.0 leaf stage, 30 days after application, Test Examples 46-60, read-out: Growth inhibition rate (%) Observed) was 20%.

Molecule `CCS(=O)(=O)Oc1ccc2c(c1)C(C)(C)CO2` [Compound (B8.1), benfuresate] has an inhibition at 1200 g/ha [2] of 70% and an inhibition at 600 g/ha ([1]; Cyperus serotinus, soil, 720 h, read-out: Growth inhibition rate (%) Observed) of 93%.

In the case of `COCC(=O)OC(c1ncccc1S(=O)(=O)NC(=O)Nc1nc(OC)cc(OC)n1)C(C)F` (centres unmarked) [Compound A2, flucetosulfuron], the “Growth inhibition rate (%) Observed” value ([3]; 0.083 g/a) is reported as 23%, the “Growth inhibition rate (%) Observed” value ([3]; 0.11 g/a) is reported as 50% and the “Growth inhibition rate (%) Observed” value ([3]; 0.165 g/a) is reported as 60%. For the same molecule, the “Growth inhibition rate (%) (average) 7 days” value ([4]; 7 days after application) was 23%, the “Growth inhibition rate (%) (average) 21 days” value ([4]; 21 days after application) was 33% and the “Growth inhibition rate (%) Observed” value ([5]; false pimpernel one leaf-pair stage, 21 days after application) was 90%. The “Growth inhibition rate (%) Observed” value ([5]; false pimpernel two leaf-pair stage, 22 days after application) was 65%, the “Growth inhibition rate (%) Observed” value ([1]; 0.0275 g/a, 2.8 to 3.2 leaf stage, 29 days after application) was 0% and the “Growth inhibition rate (%) Observed” value ([1]; 0.15 g/a, 2.5 to 3.0 leaf stage, 30 days after application, Test Examples 46-60) was 40%. For the same molecule, the “Growth inhibition rate (%) Observed” value ([1]; 0.2 g/a, 4 leaf stage, 21 days after application) was 20% and the “Growth inhibition rate (%) Observed” value ([1]; 0.4 g/a, 4 leaf stage, 21 days after application) was 50%.
